Test results reported in PubChem BioAssay (NCI).
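Five concentrations, 48 hours, 96-well plates. GI50 = concentration required for 50% inhibition of growth. At the TGI there is no net growth.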

What was measured:
Assay in all cases: growth of human tumour cells (NCI), 48 h
HT29 colon = test system: HT29 colon
SW-620 colon = test system: SW-620 colon
SK-MEL-28 melanoma = test system: SK-MEL-28 melanoma
NCI-H23 lung = test system: NCI-H23 lung
SF-295 CNS = test system: SF-295 CNS
COLO 205 colon = test system: COLO 205 colon
SF-268 CNS = test system: SF-268 CNS
HCC-2998 colon = test system: HCC-2998 colon

| Structure (SMILES) | TGI (HT29 colon) [µM] | TGI (SW-620 colon) [µM] | TGI (SK-MEL-28 melanoma) [µM] | TGI (NCI-H23 lung) [µM] | TGI (SF-295 CNS) [µM] | TGI (COLO 205 colon) [µM] | TGI (SF-268 CNS) [µM] | TGI (HCC-2998 colon) [µM] | GI50 (HT29 colon) [µM] | GI50 (HCC-2998 colon) [µM] | GI50 (SW-620 colon) [µM] | GI50 (SK-MEL-28 melanoma) [µM] | GI50 (NCI-H23 lung) [µM] | GI50 (SF-295 CNS) [µM] | GI50 (COLO 205 colon) [µM] | GI50 (SF-268 CNS) [µM] |
| --- | --- | --- | --- | --- | --- | --- | --- | --- | --- | --- | --- | --- | --- | --- | --- | --- |
| CC(C)(C)c1cc(CCC(=O)Nc2ccc(Cl)cc2)nc(NC#N)n1 | > 100 | > 100 | > 100 | > 100 | > 100 | > 100 | > 100 | – | – | – | – | – | – | – | – | – |
| Cc1ccc(NC(=O)CC(=O)n2nc(C)c(N=Nc3ccccc3C(=O)O)c2C)cc1 | > 100 | > 100 | > 100 | > 100 | > 100 | > 100 | > 100 | > 100 | – | – | – | – | – | – | – | – |
| CCCC1N2CCCCC2[C@@H]2c3[nH]c4ccccc4c3CCN12 (stereo not given in full) | > 100 | > 100 | > 100 | > 100 | > 100 | > 100 | > 100 | > 100 | – | – | – | – | – | – | – | – |
| N#C/C(=C\c1ccc2ccccc2c1)c1ccccc1 | 74.6 | > 100 | > 100 | > 100 | 50.4 | 35.9 | > 100 | 87.9 | – | – | – | – | – | – | – | – |
| O=C(N/C(=C\c1cccc([N+](=O)[O-])c1)c1nc2ccc([N+](=O)[O-])cc2[nH]1)c1ccccc1 | > 100 | > 100 | > 100 | > 100 | > 100 | > 100 | > 100 | > 100 | – | – | – | – | – | – | – | – |
| NC12CC3CC(C1)CC(C(=O)O)(C3)C2 | > 100 | > 100 | > 100 | > 100 | > 100 | – | > 100 | > 100 | – | – | – | – | – | – | – | – |
| Cc1ccc2c(c1)Sc1c(ccc3ccccc13)N2 | > 100 | > 100 | > 100 | > 100 | > 100 | > 100 | > 100 | > 100 | 51.2 | 98.7 | > 100 | > 100 | > 100 | 15.4 | 76.1 | 69.2 |
| N#CC(C#N)=C1Nc2ccccc2S1 | – | > 100 | 77.4 | 45.9 | 69 | > 100 | > 100 | – | – | – | 40.1 | 27.7 | 22.4 | 24.3 | 29.5 | 27.8 |
| CS(=O)(=O)c1ccc(-n2nc(C(F)(F)F)cc2OC2CCCC2)cc1 | 78.4 | > 100 | > 100 | – | > 100 | 81.7 | > 100 | 73.5 | 24.7 | 27 | 71.2 | > 100 | – | 37.4 | 29 | 36.1 |
| Cc1ccc(C(=O)NC(C)C)cc1-c1ccc(C(=O)NCC2CC2)cc1 | > 25 | > 25 | > 25 | > 25 | > 25 | > 25 | > 25 | > 25 | > 25 | > 25 | > 25 | > 25 | > 25 | > 25 | > 25 | > 25 |
| COCCCNC(=O)C1C(=O)C(=O)N(CCCOC)C1=O (stereo not given) | > 100 | > 100 | > 100 | > 100 | > 100 | > 100 | > 100 | > 100 | – | – | – | – | – | – | – | – |
| CN(C)CCNC(=O)c1cccc2ccc(-c3ccncc3)nc12 | 13.8 | 18.1 | 17.5 | 5.31 | 14.8 | 7.26 | 21.7 | 10.2 | – | – | – | – | – | – | – | – |
| CC/C=C\C[C@H](F)C/C=C1/C(=O)C=C[C@@H]1C/C=C\CCCC(=O)O | 15 | 21.3 | 11.4 | 20.4 | 17.2 | 12.2 | 22.4 | 12.2 | 5.4 | 6.93 | 5.64 | 4.98 | 7.36 | 7.54 | 5.3 | 6.55 |
| CCCCCCCC(=O)OCC/C=C/C1OC1C1OC(=O)/C=C\C=C\c2nc(oc2C)/C=C(/C)CCC2OC2C1OC(=O)NC(C)=O (stereo not given) | 1.12 | 1.07 | 0.159 | 0.108 | 0.0548 | 0.193 | 1.74 | 0.0739 | 0.0397 | 0.0208 | 0.0393 | 0.0679 | 0.023 | 0.00904 | 0.0581 | 0.0401 |
| CC(=O)OCC1OC(NC(=S)N/N=C2\CC(c3ccccc3)Oc3ccccc32)C(OC(C)=O)C(OC(C)=O)C1OC(C)=O (stereo not given) | > 100 | > 100 | – | > 100 | > 100 | > 100 | > 100 | > 100 | – | – | – | – | – | – | – | – |
| CCOC(=O)/C(=C\c1ccccc1)C(=O)O | > 100 | > 100 | > 100 | > 100 | > 100 | > 100 | > 100 | > 100 | – | – | – | – | – | – | – | – |

| Structure (SMILES) | TGI (HT29 colon) [µM] | TGI (SW-620 colon) [µM] | TGI (SK-MEL-28 melanoma) [µM] | TGI (NCI-H23 lung) [µM] | TGI (SF-295 CNS) [µM] | TGI (COLO 205 colon) [µM] | TGI (SF-268 CNS) [µM] | TGI (HCC-2998 colon) [µM] | GI50 (HT29 colon) [µM] | GI50 (HCC-2998 colon) [µM] | GI50 (SW-620 colon) [µM] | GI50 (SK-MEL-28 melanoma) [µM] | GI50 (NCI-H23 lung) [µM] | GI50 (SF-295 CNS) [µM] | GI50 (COLO 205 colon) [µM] | GI50 (SF-268 CNS) [µM] |
| --- | --- | --- | --- | --- | --- | --- | --- | --- | --- | --- | --- | --- | --- | --- | --- | --- |
| COc1cc(C(=O)CBr)c(OC)cc1C | > 100 | > 100 | > 100 | > 100 | > 100 | > 100 | > 100 | – | – | – | – | – | – | – | – | – |
| O=C(Nc1ccc(-c2nc(N3CCOCC3)c3cccn3n2)cc1)Nc1cccnc1 | > 100 | > 100 | – | > 100 | 0.581 | – | 87.6 | > 100 | 0.3 | 0.253 | 0.0524 | – | 0.269 | 0.102 | – | 0.248 |
| O=C1CCC(N2C(=O)c3ccccc3C2=O)C(=O)N1CO (stereo not given) | > 100 | > 100 | > 100 | 94.6 | > 100 | > 100 | > 100 | – | 42.1 | – | 32.4 | > 100 | 39.6 | > 100 | > 100 | > 100 |
| O=C(CC1C(=O)NN(c2ccc(Br)cc2)C1=O)c1cc(O)ccc1O (stereo not given) | > 50 | > 50 | > 50 | > 50 | 29.7 | > 50 | > 50 | – | 22 | – | 17.9 | 28 | 19.8 | 11 | 23.3 | 29 |
| CNC(=O)C1CCc2nnc(-c3ccccc3)n21 (stereo not given) | – | > 100 | > 100 | – | – | > 100 | > 100 | > 100 | – | – | – | – | – | – | – | – |
| CC(C)(CO)N1CCN(C(=S)Nc2ccccc2)CC1 | > 100 | > 100 | > 100 | > 100 | > 100 | > 100 | > 100 | – | – | – | – | – | – | – | – | – |
| COc1ccc(-c2nc(-c3nc4ccc(Cl)cc4[nH]3)c3ccccn23)cc1 | 14.2 | 22.5 | 5.34 | 45.7 | – | 13.3 | 9.07 | > 100 | 3.66 | 18.6 | 4.07 | 2.14 | 7.52 | – | 3.61 | 2.93 |
| O/N=C/c1ncccc1C1OCCO1 | > 100 | > 100 | > 100 | > 100 | > 100 | > 100 | > 100 | – | – | – | – | – | – | – | – | – |
| C[C@@H]1OC(=O)N2CCCC(=C3SCCCS3)C12 (stereo not given in full) | > 100 | > 100 | > 100 | > 100 | > 100 | > 100 | > 100 | – | – | – | – | – | – | – | – | – |
| O=S(=O)(NC1=NCCN1C(=S)SN1CCn2c1nsc2=S)c1cccc(Cl)c1 | 74 | > 100 | 39.7 | – | 58.1 | 20.7 | 46.7 | 37.3 | 20.5 | 22.5 | 22.9 | 21.4 | – | 21.8 | 7.48 | 20.2 |
| O=C1c2cccc([N+](=O)[O-])c2C(=O)N1c1ncn[nH]1 | > 100 | > 100 | > 100 | > 100 | > 100 | > 100 | > 100 | – | – | – | – | – | – | – | – | – |
| Cc1cc(-c2cnn3c(NCC4CC(C)(O)C4)cc(Oc4cccnc4)nc23)ccc1C(=O)NC1CC1 (stereo not given) | – | > 100 | – | > 100 | > 100 | > 100 | > 100 | – | – | – | 0.591 | – | > 100 | 3.28 | 1.06 | 8.72 |
| O=C1c2ccccc2C(=O)N1CCc1ncc[nH]1 | > 100 | > 100 | > 100 | > 100 | > 100 | > 100 | > 100 | – | – | – | – | – | – | – | – | – |
| CCCCCCCCn1ccc2cc(NC(=O)Cn3cc(CN4CCCC4)nn3)ccc21 | 4.09 | 3.6 | – | 3.8 | 3.72 | 3.82 | 3.57 | 3.17 | 1.97 | 1.73 | 1.86 | – | 1.92 | 1.87 | 1.99 | 1.78 |
| CCCn1c(=S)sc2c1nc(C)n1c(Nc3ccccc3)nnc21 | 38.3 | 22.3 | 38.6 | 11.1 | 19.8 | 47.3 | – | 12.2 | 13.1 | 3.27 | 8.41 | 5.71 | 2.77 | 2.59 | 17 | – |
